Data on 13 compounds can be found in PubChem BioAssay AID1963430 (Molecular Pharmacology Branch, DTP, NCI, 2024).

“And” between values parts separate entries of the source, which are not always exact repeats. Equal values may be shown once. Some results are limits rather than exact numbers.

In this experiment the test system is 521955-158-R2-J5-PDC complex spheroid growth, % test/control. In words: Anticancer human tumor 521955-158-R2-J5-PDC patient-derived pancreatic carcinoma cell line growth inhibition [Asc]. The note with it: for viability, T/C: stronger effect = lower value. How it is done:
Multicellular complex tumor spheroid response to apoptosis pathway targeting inhibitors Alrizomadlin, Pelcitoclax, and Dasminapant in combination with a variety of drugs and investigational agents in selected tumor cell lines
The MDM2 inhibitor alrizomadlin, the Bcl-2/Bcl-xL inhibitor pelcitoclax, and the IAPs inhibitor dasminapant were evaluated both individually and in combination with standard of care and investigational anticancer small molecules within a complex spheroid model of solid tumors. . Complex spheroids include a stromal component modeled by human endothelial cells (HUVEC) and fibroblasts modeled by human mesenchymal stem cells (MSCs). The concentration ranges selected for each drug and investigational agent were based upon clinically achievable concentrations if the clinical Cmax of the agent was known.
Compounds. The drugs and investigational agents: alrizomadlin (APG-115; NSC831270), pelcitoclax (APG-1252; NSC835773), dasminapant (APG-1387;NSC834197), TAK-243 (NSC785004), copanlisib (NSC809693), olaparib (NSC753686), talazoparib (NSC767125), cobimetinib (NSC 768068), eltanexor (KPT-8602, NSC 794443), abemaciclib (NSC 768073), sotorasib (NSC818433), adagrasib (NSC 831453), MRTX-1133 (NSC 836407), Iadademestat (ORY1001, NSC 806812), and RMC-4630 (NSC839698), were obtained from the NCI Developmental Therapeutics Program Chemical Repository. The FDA-approved anticancer drug set is available from the Developmental Therapeutics Program at https://dtp.cancer.gov/organization/dscb/obtaining/available plates.htm. […] The stock solutions were prepared in dimethyl sulfoxide (DMSO, Sigma-Aldrich, St. Louis, MO, cat. D2650) at 800-fold the tested concentration and stored at -70 degrees C prior to their use. All drugs and investigational agents were tested over a range starting from a high concentration at or near the clinical Cmax and decreasing in half-log increments. If the clinical Cmax for an agent had not been determined, the highest concentration tested was 10 microM.
The patient-derived cancer (PDC) cell lines include five colon adenocarcinomas: 186277-243-T-J2-PDC, 616215-338-R-J1-PDC, 439559-082-T-J2-PDC, 463943-066-T-J2-PDC, and 519858-162-T-J1-PDC; three pancreatic carcinomas: 323965-272-R-J2-PDC, 521955-158-R6-J3-PDC, and 521955-158-R2-J5-PDC; two uterine sarcomas: 327498-152-R-J2-PDC and 993429-296-R-J1-PDC; two rhabdomyosarcomas: 755483-174-R-J1-PDC and 772245-204-R-J1-PDC; two soft tissue sarcomas: 126254-015-R-J1-PDC and 494315-158-R-J1-PDC; two malignant fibrous histiocytomas: 317291-083-R-J1-PDC and 596521-263-R-J1-PDC; two breast carcinomas: 171881-019-R-J1-PDC and 885512-296-R-J2-PDC; and one ovarian carcinoma: 6556581-035-R-J-PDC were obtained from the NCI PDMR, (https://pdmr.cancer.gov). The established cell lines HSSY-2 synovial sarcoma (RRID:CVCL 8719), SYO-1 synovial sarcoma (RRID:CVCL_7146), MPNST malignant peripheral neural sheath tumor were obtained from the Sloan Kettering Institute. The following established cell lines were purchased from the American Type Culture Collection (ATCC, Manassas, VA), Sor the received from the NCI repository:, PANC-1 pancreatic carcinoma (CRL-1469, RRID:CVCL_0480), OVCAR-5 ovarian carcinoma (RRID:CVCL_1628), OVCAR-8 ovarian carcinoma (RRID:CVCL_1629), , MCF-7 breast carcinoma (CRL-12584, RRID:CVCL_0031), MDA-MB-231 breast carcinoma (CRL-12532, RRID:CVCL_0062), NCI-H1876 small cell lung carcinoma (CRL-5902, RRID:CVCL_1503), NCI-H510A small cell lung carcinoma (HTB-184, RRID:CVCL_1565), NCI-H1417 (CRL-5869, RRID:CVCL_1469), and NCI-H196 small cell lung carcinoma (CRL-5823, RRID:CVCL_1509). Dr. Peter Houghton (Greehey Children's Cancer Research Institute, University of Texas Health Science Center, San Antonio, TX) provided Rh-18 rhabdomyosarcoma (RRID:CVCL_1659). Pooled donor human umbilical vein endothelial cells (HUVEC, Lonza, cat. CC-2519) and human mesenchymal stem cells (hMSC, Lonza, cat. PT-2501) were purchased from Lonza (Walkersville, MD).
Cell Culture. […]
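Note: spheroids exposed to agents for 7 days before readout.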
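Throughout, for viability, T/C: 100% = DMSO vehicle control viability.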

Turning to `C#Cc1c(F)ccc2cc(O)cc(-c3ncc4c(N5CC6CCC(C5)N6)nc(OCC56CCCN5CC(F)C6)nc4c3F)c12` (stereo unspecified), the viability, T/C (compound 0.0316 µM) was 23.2% and 40.7% and 50.5%; the viability, T/C (compound 0.1 µM) was 28.2% and 48.4% and 47.1%; the viability, T/C (compound 0.316 µM) was 22.3% and 37.1% and 31.9%; the viability, T/C (compound 1 µM) is 20.6% and 36.3% and 36.4%; the viability, T/C (compound 3.16 µM) was 24.6% and 37.5% and 33.1%; the viability, T/C (compound 10 µM) is 21.9% and 34.4% and 44.3%. The half-maximal inhibitory concentration (IC50) (curve of compound) was < 31.6 nM and 35.9 nM.
As to `C=C(F)C(=O)N1CCN(c2nc(OCC3CCCN3C)nc3c2CCN(c2cccc4cccc(Cl)c24)C3)CC1CC#N` (stereo unspecified), the viability, T/C reads like this: (compound 0.0316 µM) 68.6% and 77.1% and 84.2%; (compound 0.1 µM) 89% and 77.1% and 94.1%; (compound 0.316 µM) 78.8% and 86.1% and 107%; (compound 1 µM) 105% and 95.4% and 98.1%; (compound 3.16 µM) 115% and 136% and 120%; (compound 10 µM) 0.29% and 0.32% (2×). Besides, the IC50 (curve of compound) was 5330 nM and 5440 nM and 5660 nM.
On to `C=CC(=O)N1CCN(c2nc(=O)n(-c3c(C)ccnc3C(C)C)c3nc(-c4c(O)cccc4F)c(F)cc23)C(C)C1` (stereo unspecified), for which the viability, T/C (compound 0.0316 µM) is 87.7% and 88.9% and 88.2%; the viability, T/C (compound 0.1 µM) is 72.1% and 90.3% and 87.8%; the viability, T/C (compound 0.316 µM) was 76.3% and 92.3% and 90.2%; the viability, T/C (compound 1 µM) is 108% and 87.7% and 113%; the viability, T/C (compound 3.16 µM) is 102% and 121% and 112%; the viability, T/C (compound 10 µM) is 101% (2×) and 95.5%. The IC50 (curve of compound) is more than 10000 nM.
In the case of `CCN1C(C(=O)NC23CCC(C(=O)O)(CC2)CC3)C(c2cccc(Cl)c2F)C2(C(=O)Nc3cc(Cl)ccc32)C12CCCCC2` (stereo unspecified), the viability, T/C (compound 0.00949 µM) was 94.9% and 87.6%. Also, the IC50 by setting is: (compound alone, run of 09/27/2022) more than 3000 nM; (curve of compound) more than 3000 nM.
Turning to `CCN1CCN(Cc2ccc(Nc3ncc(F)c(-c4cc(F)c5nc(C)n(C(C)C)c5c4)n3)nc2)CC1`, the viability, T/C (compound 0.00316 µM) was 70.6% and 82.3% and 87.5%; the viability, T/C (compound 0.01 µM) is 72% and 65.5% and 92.3%; the viability, T/C (compound 0.0316 µM) was 54.5% and 79.2% and 78.5%; the viability, T/C (compound 0.1 µM) is 66.6% and 70.4% and 70.9%; the viability, T/C (compound 0.316 µM) is 74.6% and 71.2% and 91.2%; the viability, T/C (compound 1 µM) is 103% and 98.6% and 108%. Further, the IC50 (curve of compound) was more than 1000 nM.
As to `CNC(C)C(=O)NC1CN(S(=O)(=O)c2cccc(S(=O)(=O)N3CCC4CCC(C(=O)NC(c5ccccc5)c5ccccc5)N4C(=O)C(NC(=O)C(C)NC)C3)c2)CCC2CCC(C(=O)NC(c3ccccc3)c3ccccc3)N2C1=O` (stereo unspecified), where the note is “compound 0.00316 µM”, the viability, T/C is 72.5% and 68.6%. In addition, the concentration for half-maximal inhibition (IC50) was more than 1000 nM (compound alone, run of 10/03/2022) and more than 1000 nM (curve of compound).
For `COc1c(OCCCN2CCOCC2)ccc2c3n(c(=NC(=O)c4cnc(N)nc4)nc12)CCN3`, the viability, T/C was 53.2% and 58.9% and 68.7% (compound 0.00316 µM); 51.9% and 45.7% and 44% (compound 0.01 µM); 40.8% and 38.2% and 34.3% (compound 0.0316 µM); 30.1% and 31.6% and 29.1% (compound 0.1 µM); 18.9% and 20% and 19.9% (compound 0.316 µM); 15.3% and 16.1% and 14.2% (compound 1 µM). Moreover, the half-maximal inhibitory concentration (IC50) (curve of compound) is 10.7 nM and 7.52 nM and 8.61 nM.
As to `Cc1nc(N2CCC3(CC2)COC(C)C3N)c(CO)nc1Sc1ccnc(N)c1Cl` (stereo unspecified), the viability, T/C reads like this: (compound 0.00949 µM) 70.6% and 72.1% and 91.2%; (compound 0.03 µM) 68.2% and 54.1% and 87.1%; (compound 0.0949 µM) 59.4% and 48.2% and 62.4%; (compound 0.3 µM) 48.2% (2×) and 65.5%; (compound 0.949 µM) 55.2% and 53.1% and 52.7%; (compound 3 µM) 51.9% and 43.2% and 57.4%.
For the compound `Cn1ncnc1[C@H]1c2n[nH]c(=O)c3cc(F)cc(c23)N[C@@H]1c1ccc(F)cc1`, the viability, T/C was 106% and 99.6% and 79.6% (compound 0.000316 µM); 81.4% and 87.9% and 79.3% (compound 0.001 µM); 68.4% and 93.3% and 73.6% (compound 0.00316 µM); 76.5% and 83.7% and 68.9% (compound 0.01 µM); 81.5% and 76.8% and 63.5% (compound 0.0316 µM); 57.7% and 68.6% and 70.2% (compound 0.1 µM). Besides, the IC50 (curve of compound) was more than 100 nM.
On to `NC(=O)C(=Cn1cnc(-c2cc(C(F)(F)F)cc(C(F)(F)F)c2)n1)c1cncnc1`, for which the viability, T/C is 68.4% and 84.3% and 83.5% (compound 0.000949 µM); 42.6% and 54.8% and 95.5% (compound 0.003 µM); 37.3% and 48.3% and 47.9% (compound 0.00949 µM); 28.6% and 36.7% and 57.8% (compound 0.03 µM); 27.8% and 32.6% and 43.7% (compound 0.0949 µM); 23.8% and 48% and 30.4% (compound 0.3 µM).
In the case of `NC1CCC(NC2CC2c2ccccc2)CC1` (stereo unspecified), the viability, T/C is 63.1% and 63.5% and 88.5% (compound 0.000316 µM); 57% and 64.8% and 83.1% (compound 0.001 µM); 52.8% and 60% and 75.8% (compound 0.00316 µM); 68.5% and 49.6% and 95% (compound 0.01 µM); 58.5% and 56.5% and 90.8% (compound 0.0316 µM); 60% and 61.9% and 74% (compound 0.1 µM). Moreover, the IC50 (curve of compound) is more than 100 nM.
As to `O=C(c1cc(Cc2n[nH]c(=O)c3ccccc23)ccc1F)N1CCN(C(=O)C2CC2)CC1`, the viability, T/C runs as follows: (compound 0.0316 µM) 80.7% and 80% and 97.9%; (compound 0.1 µM) 79.6% and 89.4% and 92.2%; (compound 0.316 µM) 71.8% and 89.7% and 84.1%; (compound 1 µM) 62.2% and 88.6% and 85.9%; (compound 3.16 µM) 76.3% and 93.4% and 74.3%; (compound 10 µM) 60.8% and 63.9% and 61.5%. Moreover, the concentration for half-maximal inhibition (IC50) (curve of compound) was more than 10000 nM.
As for `O=C(c1ccc(F)c(F)c1Nc1ccc(I)cc1F)N1CC(O)([C@@H]2CCCCN2)C1`, the viability, T/C was 73.4% and 81.6% and 64.9% (compound 0.00316 µM); 73.2% and 72.4% and 79.1% (compound 0.01 µM); 61.1% and 71.3% and 49.6% (compound 0.0316 µM); 47.8% and 51.4% and 31% (compound 0.1 µM); 41.1% and 47.1% and 32.3% (compound 0.316 µM); 33.1% and 31.4% and 26% (compound 1 µM). The half-inhibitory concentration (IC50) (curve of compound) was 90.2 nM and 184 nM and 30.9 nM.

Broadly, the viability, T/C is the ratio of treated to control. In general, IC50 refers to the concentration at which inhibition is half-maximal.
